# Results reported in ChEMBL document CHEMBL1649270, “ST-246 inhibits in vivo poxvirus dissemination, virus shedding, and systemic disease manifestation” (2009).
# Active and inactive are the calls of the source. The rule behind the calls is not given here.
# Experiments:
# Vaccinia virus WR [1] = experiment: Antiviral activity against Vaccinia virus WR ATCC VR-1354 infected through intravenous route in BALB/c mouse assessed as reduction of viral load in spleen at 100 mg/kg, po qd measured after 14 days postinfection by RT-PCR analysis relative to control; type: functional, organism-based; set-up: dose 100 mg/kg
# Vaccinia virus WR [2] = experiment: Antiviral activity against Vaccinia virus WR ATCC VR-1354 infected through intravenous route in BALB/c mouse assessed as reduction of viral load in liver at 100 mg/kg, po qd measured after 3 days postinfection by RT-PCR analysis relative to control; type: functional
# Vaccinia virus WR [3] = experiment: Antiviral activity against Vaccinia virus WR ATCC VR-1354 infected through intravenous route in BALB/c mouse assessed as reduction of viral load in brain at 100 mg/kg, po qd measured after 3 days postinfection by RT-PCR analysis relative to control; type: functional
# Vaccinia virus WR [4] = experiment: Antiviral activity against Vaccinia virus WR ATCC VR-1354 infected through intravenous route in BALB/c mouse assessed as reduction of viral load in liver at 100 mg/kg, po qd measured after 14 days postinfection by RT-PCR analysis relative to control; type: functional, organism-based; set-up: dose 100 mg/kg
# Vaccinia virus WR [5] = experiment: Antiviral activity against Vaccinia virus WR ATCC VR-1354 infected through subcutaneous route in BALB/c mouse assessed as reduction of viral load in lung at 100 mg/kg, po qd measured after 3 to 5 days postinfection by RT-PCR analysis relative to control; type: functional
# Vaccinia virus WR [6] = experiment: Antiviral activity against Vaccinia virus WR ATCC VR-1354 infected through intraperitoneal route in BALB/c mouse assessed as reduction of viral load in lung at 100 mg/kg, po qd measured after 3 days postinfection by RT-PCR analysis relative to control; type: functional, organism-based; set-up: dose 100 mg/kg
# Vaccinia virus WR [7] = experiment: Antiviral activity against Vaccinia virus WR ATCC VR-1354 infected through intraperitoneal route in BALB/c mouse assessed as reduction of viral load in brain at 100 mg/kg, po qd measured after 3 days postinfection by RT-PCR analysis relative to control; type: functional, organism-based; set-up: dose 100 mg/kg
# Vaccinia virus WR [8] = experiment: Antiviral activity against Vaccinia virus WR ATCC VR-1354 infected through intraperitoneal route in BALB/c mouse assessed as reduction of viral load in lung at 100 mg/kg, po qd measured after 5 days postinfection by RT-PCR analysis relative to control; type: functional, organism-based; set-up: dose 100 mg/kg
# Vaccinia virus WR [9] = experiment: Antiviral activity against Vaccinia virus WR ATCC VR-1354 in african green monkey BSC-40 cells infected with 7 day postinfection nasal fluid from 100 mg/kg, po qd compound treated BALB/c mouse infected through percutaneous route assessed as reduction of viral attachment to cells by plaque titration assay; type: functional
# Vaccinia virus WR [10] = experiment: Antiviral activity against Vaccinia virus WR ATCC VR-1354 infected through dermal scarification route in ACAM2000 vaccinated BALB/c mouse assessed as reduction of swab virus titers at 100 mg/kg, po qd measured after 14 days postinfection by RT-PCR analysis relative to control; type: functional
# Vaccinia virus WR [11] = experiment: Antiviral activity against Vaccinia virus WR ATCC VR-1354 infected through dermal scarification route in ACAM2000 vaccinated BALB/c mouse assessed as reduction of swab virus titers at 100 mg/kg, po qd measured after 21 days postinfection by RT-PCR analysis relative to control; type: functional
# Vaccinia virus WR [12] = experiment: Antiviral activity against Vaccinia virus WR ATCC VR-1354 infected through percutaneous route in BALB/c mouse assessed as protection against virus-induced death at 100 mg/kg, po qd for 1 to 3 days; type: functional, organism-based; set-up: dose 100 mg/kg
# Vaccinia virus WR [13] = experiment: Antiviral activity against Vaccinia virus WR ATCC VR-1354 infected through percutaneous route in BALB/c mouse assessed as protection against weight loss at 100 mg/kg, po qd for 1 to 3 days measured on day 8; type: functional, organism-based; set-up: dose 100 mg/kg
# Vaccinia virus WR [14] = experiment: Antiviral activity against Vaccinia virus WR ATCC VR-1354 infected through percutaneous route in BALB/c mouse assessed as protection against weight loss at 100 mg/kg, po qd for 5 to 14 days measured on day 8; type: functional
# Vaccinia virus WR [15] = experiment: Antiviral activity against Vaccinia virus WR ATCC VR-1354 infected through dermal scarification route in BALB/c mouse assessed as protection against virus-induced systemic disease symptoms at 100 mg/kg, po qd measured after 9 days postinfection; type: functional, organism-based; set-up: dose 100 mg/kg
# Vaccinia virus WR [16] = experiment: Antiviral activity against Vaccinia virus WR ATCC VR-1354 infected through percutaneous route in BALB/c mouse assessed as reduction of viral load in spleen at 100 mg/kg, po qd for 1 day by RT-PCR analysis relative to control; type: functional
# Vaccinia virus WR [17] = experiment: Antiviral activity against Vaccinia virus WR ATCC VR-1354 infected through percutaneous route in BALB/c mouse assessed as reduction of viral load in spleen at 100 mg/kg, po qd for 3 days by RT-PCR analysis relative to control; type: functional
# Vaccinia virus WR [18] = experiment: Antiviral activity against Vaccinia virus WR ATCC VR-1354 infected through percutaneous route in BALB/c mouse assessed as protection against virus-induced conjunctivitis in mouse eyes at 100 mg/kg, po qd measured after 6 days postinfection; type: functional, organism-based; set-up: dose 100 mg/kg
# Vaccinia virus WR [19] = experiment: Antiviral activity against Vaccinia virus WR ATCC VR-1354 infected through intravenous route in BALB/c mouse assessed as protection against virus-induced satellite lesion formation on tails at 100 mg/kg, po qd measured after 6 days postinfection; type: functional, organism-based; set-up: dose 100 mg/kg
# Vaccinia virus WR [20] = experiment: Antiviral activity against Vaccinia virus WR ATCC VR-1354 infected through intravenous route in BALB/c mouse assessed as protection against virus-induced conjunctivitis in mouse eyes at 100 mg/kg, po qd measured after 6 days postinfection; type: functional, organism-based; set-up: dose 100 mg/kg
# Vaccinia virus WR [21] = experiment: Antiviral activity against Vaccinia virus WR ATCC VR-1354 infected through percutaneous route in BALB/c mouse assessed as reduction of viral load in lungs at 100 mg/kg, po qd measured after 5 days postinfection by RT-PCR analysis relative to control; type: functional
# Vaccinia virus WR [22] = experiment: Antiviral activity against Vaccinia virus WR ATCC VR-1354 infected through percutaneous route in BALB/c mouse assessed as reduction of viral load in liver at 100 mg/kg, po qd measured after 5 days postinfection by RT-PCR analysis relative to control; type: functional
# Vaccinia virus WR [23] = experiment: Antiviral activity against Vaccinia virus WR ATCC VR-1354 infected through percutaneous route in BALB/c mouse assessed as reduction of viral load in spleen at 100 mg/kg, po qd measured after 7 days postinfection by RT-PCR analysis relative to control; type: functional, organism-based; set-up: dose 100 mg/kg
# Vaccinia virus WR [24] = experiment: Antiviral activity against Vaccinia virus WR ATCC VR-1354 infected through percutaneous route in BALB/c mouse assessed as reduction of viral load in liver at 100 mg/kg, po qd measured after 13 days postinfection by RT-PCR analysis relative to control; type: functional, organism-based; set-up: dose 100 mg/kg
# Vaccinia virus WR [25] = experiment: Antiviral activity against Vaccinia virus WR ATCC VR-1354 infected through dermal scarification route in BALB/c mouse assessed as reduction of viral load in spleen at 100 mg/kg, po qd measured after 5 days postinfection by RT-PCR analysis relative to control; type: functional
# Vaccinia virus WR [26] = experiment: Antiviral activity against Vaccinia virus WR ATCC VR-1354 infected through dermal scarification route in BALB/c mouse assessed as reduction of viral load in blood at 100 mg/kg, po qd measured after 14 days postinfection by RT-PCR analysis relative to control; type: functional, organism-based; set-up: dose 100 mg/kg
smiles,measurement,setting,value
O=C(NN1C(=O)[C@@H]2[C@@H]3C=C[C@@H]([C@H]4C[C@@H]34)[C@@H]2C1=O)c1ccc(C(F)(F)F)cc1 [TECOVIRIMAT],Activity,Vaccinia virus WR [1],Active
same,fold change (FC),Vaccinia virus WR [2],8
same,fold change (FC),Vaccinia virus WR [3],23
same,Activity,Vaccinia virus WR [4],Active
same,fold change (FC),Vaccinia virus WR [5],30
same,Activity,Vaccinia virus WR [6],inactive
same,Activity,Vaccinia virus WR [7],inactive
same,Activity,Vaccinia virus WR [8],Active
same,fold change (FC),Vaccinia virus WR [9],22
same,fold change (FC),Vaccinia virus WR [10],25
same,fold change (FC),Vaccinia virus WR [11],3900
same,Activity,Vaccinia virus WR [12],inactive
same,Activity,Vaccinia virus WR [13],inactive
same,Activity,Vaccinia virus WR [14],>70%
same,Activity,Vaccinia virus WR [15],Active
same,fold change (FC),Vaccinia virus WR [16],18
same,fold change (FC),Vaccinia virus WR [17],300
same,Activity,Vaccinia virus WR [18],Active
same,Activity,Vaccinia virus WR [19],Active
same,Activity,Vaccinia virus WR [20],Active
same,fold change (FC),Vaccinia virus WR [21],3.5
same,fold change (FC),Vaccinia virus WR [22],300
same,Activity,Vaccinia virus WR [23],Active
same,Activity,Vaccinia virus WR [24],Active
same,fold change (FC),Vaccinia virus WR [25],16
same,Activity,Vaccinia virus WR [26],Active
